Key:
P. falciparum schizonts = experiment: Washout egress assay, hemoglobin release into culture supernatants; assay type: cell-based; details: Plasmodium falciparum; 4 h pretreatment, then washout
Procedure: Short-term egress, invasion, and washout assays were performed essentially as described previously ([27], [28], [42]). Briefly, highly synchronous mature Percoll-enriched schizonts with or without added fresh RBCs (∼5% parasitaemia final) were incubated with compounds under test or vehicle only (DMSO, 1% vol/vol). For washout assays, schizonts were treated with C2 or various concentrations of inhibitor 3j for 1 to 4 h, then washed extensively (at least four times) prior to addition to fresh RBCs where required. After incubation at 37 °C for just 1 to 4 h (or overnight for invasion assays) to allow schizont rupture, cells were pelleted. Clarified culture supernatants were assessed for extent of hemoglobin release (a measure of schizont rupture) by absorption spectroscopy at 415 nm as described previously ([28]) or analyzed by Western blot using antibodies against SERA5 ([7], [11]). To quantify generation of new rings, samples of the cultures were fixed with 4% paraformaldehyde/0.02% glutaraldehyde and stained with SYBR Green I (Life Technologies) and then analyzed by flow cytometry on a BD FACSVerse using BD FACSuite software. Data were analyzed using FlowJo software. All cultures were also routinely analyzed by microscopic examination of Giemsa-stained thin films to visually assess parasite morphology.

[1] = biological target: T1, recombinant PfSUB1 (rPfSUB1) (Plasmodium falciparum, UniProt Q8I0V0); experiment: rPfSUB1 fluorogenic peptide substrate cleavage inhibition assay; assay type: biochemical; details: versus mammalian trypsin, chymotrypsin and elastase
T1 construct: Chymotrypsin-treated rPfSUB1 (expressed and purified as described previously); made in house

[2] = system: PfSUB1-mediated proteolytic processing of SERA5; experiment: Western blot of SERA5 processing after washout; assay type: cell-based, Plasmodium falciparum; details: 4 h pretreatment then washout
Description: To seek unambiguous confirmation that PfSUB1 is the intracellular target of compound 3j, we examined the effects of the compound on the PfSUB1-mediated proteolytic processing of the established endogenous PfSUB1 substrate SERA5, an abundant parasite PV protein that only becomes accessible to cleavage upon discharge of PfSUB1 into the PV in the minutes leading up to egress and is then released in a processed form into culture supernatants ([6], [11], [12]). […] It was concluded that compound 3j prevents egress and parasite proliferation through direct inhibition of intracellular PfSUB1.
Short-term egress, invasion, and washout assays were performed essentially as described previously ([27], [28], [42]). […] Clarified culture supernatants were assessed for extent of hemoglobin release (a measure of schizont rupture) by absorption spectroscopy at 415 nm as described previously ([28]) or analyzed by Western blot using antibodies against SERA5 ([7], [11]). To quantify generation of new rings, samples of the cultures were fixed with 4% paraformaldehyde/0.02% glutaraldehyde and stained with SYBR Green I (Life Technologies) and then analyzed by flow cytometry on a BD FACSVerse using BD FACSuite software. Data were analyzed using FlowJo software. All cultures were also routinely analyzed by microscopic examination of Giemsa-stained thin films to visually assess parasite morphology.

α-chymotrypsin = biological target: T2, α-chymotrypsin (Bos taurus, UniProt P00766); experiment: α-Chymotrypsin inhibition assay (N-Suc-LLVY-AMC cleavage); assay type: biochemical; details: bovine
T2 construct: purchased Sigma-Aldrich C3142; host or cells: bovine pancreas
Procedure: Analytical data are in accor dance with those reported in the literature12.
(+)-Pinanediol (1- am inobenzyl)boronate h ydrochloride 9g
A previousl y reported m ethod was used for the first step of the s ynthesis3.
Phenylm agnesium brom ide 0.7 M (3.1 m L, 2.15 mm ol, 1.2 equiv) was added dropwise at −78°C to a solution of (+)-pinanediol dichloromethyl boronate 24 (470 m g, 1.79 mmol, 1.0 equiv) in anh ydrous dieth yl ether (10 m L). Af ter 15 m in ZnCl2 1 M (1.8 m L, 1.8 mm ol, 1.0 equiv) was slowl y added at this t em perature. T he reaction m ixture was allowed to warm up to room tem perature over 2 hours. The inorganic precipitate was filtered off and the solvents were rem oved in vacuo. The residue was dissolved in pentane, washed with water and dried over Na2SO4. Rem oval of the solvent gives a product which was forwarded to the next step without purification. […]
Assays f or inh ib ition of tr yp s in activity (T PC K trea ted, f rom bovine pa ncreas; Sigm a-Aldrich T 1426) were based on cleavage of the fluorogenic peptide substrate Boc -QAR-AMC (Sigma- Aldrich B4153). which contains the fluorescent 7- am ino-4-m ethyl c oum arin (AMC) group. […] Cleavage of this bond results in release of AMC and i ncreased fluorescence. […]

T1 sequence (Q8I0V0 218-688): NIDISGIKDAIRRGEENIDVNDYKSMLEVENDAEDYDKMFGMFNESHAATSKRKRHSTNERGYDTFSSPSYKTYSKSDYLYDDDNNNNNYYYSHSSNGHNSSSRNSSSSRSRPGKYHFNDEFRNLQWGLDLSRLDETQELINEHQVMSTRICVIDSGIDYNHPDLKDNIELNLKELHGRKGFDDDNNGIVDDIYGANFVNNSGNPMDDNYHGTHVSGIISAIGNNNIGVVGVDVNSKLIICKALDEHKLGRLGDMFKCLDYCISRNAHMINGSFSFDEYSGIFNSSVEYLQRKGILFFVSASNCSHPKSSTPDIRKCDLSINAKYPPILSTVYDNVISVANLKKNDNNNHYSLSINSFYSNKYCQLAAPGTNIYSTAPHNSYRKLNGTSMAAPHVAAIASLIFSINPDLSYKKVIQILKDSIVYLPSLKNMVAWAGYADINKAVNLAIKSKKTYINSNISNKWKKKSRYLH

With CC(=O)NC(C(=O)NC(C(=O)NCC(=O)NC(C)B(O)O)C(C)C)C1CCCC1 (stereo not shown) [3j] the EC50 (P. falciparum schizonts) was roughly 2000 nM, the “selectivity for PfSUB1” value [1] was greater than 100 fold and the SERA5 proteolytic processing [2] was “prevented proteolytic processing and release of SERA5”. For the same compound, the IC50 (α-chymotrypsin) was greater than 200000 nM.
